# In patent publication US7045512B2 (priority 2003, dated 2006):
# Assays:
# [1] = test system: Erysiyphe graminis f.sp. hordei; experiment: Foliar spray for the control of barley powdery mildew; assay type: in vivo; details: 300 ppm, greenhouse foliar spray, barley plants
# Procedure: Foliar Spray for the Control of Barley Powdery Mildew caused by Erysiyphe graminis f.sp. hordei
# Technical grade material at defined ppm rates (w/v) in an acetone:water mixture (1:9) containing 0.1% Tween 20 (v/v) is sprayed to near run-off onto 7-days-old greenhouse-grown barley plants (var. “Robust”) at the cotyledon stage. Treated plants are inoculated within 24 hours by brushing mildew-infected plants over the treated plants. Inoculated plants are kept in the greenhouse for 6–8 days for disease development. Disease severity is examined and the % control is calculated as [% disease on untreated plants−% disease on treated plants]/% diseases in untreated plants. The results of these tests are shown in Table 2A below under the heading “Foliar Application—Barley Powdery Mildew”.
# Barley Powdery Mildew = experiment: Soil drench for the control of barley powdery mildew; assay type: in vivo, Erysiyphe graminis f.sp. hordei; details: 300 ppm, greenhouse soil drench
# Procedure: (§1) Soil Drench for the Control of Barley or Cucumber Powdery Mildew
# (§2) Technical grade material formulated as described for foliar sprays is dispensed at defined rates (ml/cm^3) into the soil in the pots for barley and cucumber in the stages as described for the foliar sprays. Treated plants are inoculated, within 24 hours with the respective powdery mildew species as described for the foliar spray tests. Inoculated plants are kept in the greenhouse for 6–8 days for disease development. Disease severity is examined and the % control is calculated as [% disease on untreated plants−% disease on treated plants]/% disease on untreated plants. The results of these tests are shown in Table 2B below under the heading “Drench Application—Barley Powdery Mildew” and “Drench Application—Cucumber Powdery Mildew”.
# Fusarium nivale = experiment: microbe, parasite or virus in culture; assay type: cell-based
# Sclerotinia minor = assay type: cell-based
# Rhizoctonia solani = experiment: microbe, parasite or virus in culture; assay type: cell-based
# Botrytis cinerea [2] = experiment: microbe, parasite or virus in culture; assay type: cell-based
# Helminthosporium sativum = experiment: Foliar spray for the control of barley blotch; assay type: in vivo; details: 300 ppm, greenhouse foliar spray, barley plants
# Procedure: Foliar Spray for the Control of Barley Blotch Caused by Helminthosporium sativum
# Technical grade material at defined ppm rates (w/v) in an acetone:water mixture (1:9) containing 0.1% Tween 20 (v/v) is sprayed to near run-off onto 7-days-old greenhouse-grown barley plants (var. “Robust”) at the cotyledon stage. Treated plants are inoculated within 24 hours from spraying with an aqueous suspension of approximately 15,000 conidia/ml of Helminthosporium sativum grown on artificial medium. Inoculated plants are placed into a high humidity chamber for 24 hr and then transferred to the greenhouse for 4–5 days for disease development. Disease severity is examined and the % control is calculated as [% disease on untreated plants−% disease on treated plants]/% disease on untreated plants.
# The results of these tests are shown in Table 2A below under the heading “Foliar Application—Barley Blotch”.
# Colletotrichum gossypii = assay type: cell-based
# Erysiyphe polygoni = experiment: Foliar spray for the control of bean powdery mildew; assay type: in vivo; details: 300 ppm, greenhouse foliar spray, Pinto bean plants
# Procedure: Foliar Spray for the Control of Bean Powdery Mildew Caused by Erysiyphe polygoni
# Technical grade material at defined ppm rates (w/v) in an acetone:water mixture (1:9) containing 0.1% Tween 20 (v/v) is sprayed to near run-off onto greenhouse-grown Pinto bean plants (var. “Othello”) in the second leaf stage. Treated plants are inoculated within 24 hours by brushing mildew-infected plants over treated plants. Inoculated plants are kept in the greenhouse for two weeks for disease development. Disease severity is examined and the % control is calculated as [% disease on untreated plants−% disease on treated plants]/% disease on untreated plants. The results of these tests are shown in Table 2A below under the heading “Foliar Application—Bean Powdery Mildew”.
# Uromyces appendiculatus = experiment: Foliar spray for the control of bean rust; assay type: in vivo; details: 300 ppm
# Procedure: Foliar Spray for the Control of Bean Rust Caused by Uromyces appendiculatus
# Technical grade material at defined ppm rates (w/v) in an acetone:water mixture (1:9) containing 0.1% Tween 20 (v/v) is sprayed to near run-off onto 10-days-old greenhouse-grown Pinto bean plants (var. “Othello”) in the second leaf stage. Treated plants are inoculated within 24 hours with an aqueous suspension of approximately 20,000 uredospores of Uromyces appendiculatus harvested from rust-infected plants. Inoculated plants are placed into a high humidity chamber for 24 hr and then transferred to the greenhouse for two weeks for disease development. Disease severity is examined and the % control is calculated as [% disease on untreated plants−% disease on treated plants]/% disease on untreated plants. The results of these tests are shown in Table 2A below under the heading “Foliar Application—Bean Rust”.
# Pythium ultimum = experiment: microbe, parasite or virus in culture; assay type: cell-based
# Phytophthora infestans [3] = assay type: in vivo; details: 300 ppm, greenhouse foliar spray, tomato plants
# Cucumber Powdery Mildew = experiment: Soil drench for the control of cucumber powdery mildew; assay type: in vivo; details: 300 ppm, greenhouse soil drench
# Procedure: as §1, §2
# [4] = test system: Cercosporidium personatum; assay type: cell-based
# Phytophthora infestans [5] = experiment: microbe, parasite or virus in culture; assay type: cell-based; details: in vitro, rate 100 ppm, 48 hours
# Sclerotium rolfsii = assay type: cell-based
# Botrytis cinerea [6] = experiment: Foliar spray for the control of geranium gray mold; assay type: in vivo; details: 300 ppm, greenhouse foliar spray, geranium plants
# Procedure: Foliar Spray for the Control of Geranium Gray Mold Caused by Botrytis cinerea
# Technical grade material at defined ppm rates (w/v) in an acetone:water mixture (1:9) containing 0.1% Tween 20 (v/v) is sprayed to near run-off onto mature greenhouse-grown geranium plants (var. “Pinto White”) in the second leaf stage. Treated plants are inoculated within 24 hours with an aqueous suspension of approximately 100,000 conidia/ml of Botrytis cinerea grown on artificial medium. Inoculated plants are placed into a high humidity chamber for 5 days and then transferred to the greenhouse for one day for disease development. Disease severity is examined and the % control is calculated as [% disease on untreated plants−% disease on treated plants]/% disease on untreated plants. The results of these tests are shown in Table 2A below under the heading “Foliar Application—Geranium Gray Mold”.
# Pyricularia oryzae = experiment: whole plant or invertebrate; assay type: in vivo; details: 300 ppm, greenhouse foliar spray, rice plants
# [7] = screened against rust on beans as foliar-applied eradicant
Compound,Foliar Application (Percent Control) Barley Powdery Mildew [1],Drench Application (Percent Control) Barley Powdery Mildew (Barley Powdery Mildew),Percent Control Fusarium nivale (Fusarium nivale),Percent Control Sclerotinia minor (Sclerotinia minor),Percent Control Rhizoctonia solani (Rhizoctonia solani),Percent Control Botrytis cinerea (Botrytis cinerea [2]),Foliar Application (Percent Control) Barley Blotch (Helminthosporium sativum),Percent Control Colletotricum gossypii (Colletotrichum gossypii),Foliar Application (Percent Control) Bean Powdery Mildew (Erysiyphe polygoni),Foliar Application (Percent Control) Bean Rust (Uromyces appendiculatus; [7]),Percent Control Pythium ultimum (Pythium ultimum),Foliar Application (Percent Control) Tomato Late Blight (Phytophthora infestans [3]),Drench Application (Percent Control) Cucumber Powdery Mildew (Cucumber Powdery Mildew),Percent Control Cercosporidium personatum [4],Percent Control Phytophthora infestants (Phytophthora infestans [5]),Percent Control Sclerotium rolfsii (Sclerotium rolfsii),Foliar Application (Percent Control) Geranium Gray Mold (Botrytis cinerea [6]),"Foliar Application (Percent Control) Bean Rust (Uromyces appendiculatus; greenhouse foliar spray, Pinto bean plants)",Foliar Application (Percent Control) Rice Blast (Pyricularia oryzae)
CCC(C)OC(=O)NN(C(=O)C(F)(F)F)c1ccc(Sc2ccccc2)cc1 (centres unmarked) [Compound 4],0%,0%,50%,50%,95%,75%,0%,15%,88%,0(e) %,15%,0%,0%,65%,100%,,,,
COC(=O)NNc1ccc(Oc2cccnc2)cc1 [Compound 5],0%,0%,90%,100%,0%,25%,0%,100%,0%,0(e) %,70%,,0%,0%,20%,100%,,,
CC(C)OC(=O)NN(C(=O)C(F)(F)F)c1ccc(Oc2cccc(Cl)c2)nc1 [Compound 6],0%,0%,71%,,100%,98%,97%,,,,25%,0%,0%,,100%,98%,82%,0%,92%
